# Measurements as given in patent US20200392181A1, “PEPTIDE COMPOSITIONS AND RELATED METHODS” (Allegro Pharmaceuticals, LLC, priority 2017, published 2020).
# Tested on: ischemia-induced retinal neovascularization
# Test: Mouse model of retinopathy of prematurity (ROP), ischemia-induced retinal neovascularization
# Type: in vivo, C57BI/6 mice
# Conditions: addition of three parts taurine to one part of the peptide
# Description: Each test compound was prepared in sterile water for injection, containing 0.08 mg/100 μL of sodium chloride and 0.005 mg/100 μL of trisodium citrate, the concentration of the peptide was at a concentration of 2.0 mg/100 μL and pH=2.7 and dispensed by sterile filtration into sterile vials. The Taurine test compound was obtained from Sigma Aldrich company, which was >99% pure, and prepared the same way as mentioned previously, having a concentration of 3.0 mg/100 μL. […]
# To screen the test compounds for activity against ischemia-induced retinal neovascularization, the well-established model of retinopathy of prematurity (ROP) in mice was used. Litters of C57BI/6 mice were placed in 75% oxygen at postnatal day (P) 7, returned to room air at day (P) 12. The Pups were randomly assigned to treatment groups of 4 to 10 animals per group. The pups were treated as follows: Treatment eyes were treated by intravitreal injection of 1.0 microliters of solution containing 20 micrograms of Test Compound.
# On post-natal day 17, 5 days after intravitreal injection, the animals were sacrificed, the retinas were flat mounted and the area of neovascularization in each retina was determined by Fluorescein-dextran image analysis. […]
substance,measurement,value
Glycinyl-Arginyl-Glycinyl-Cysteic(Acid)-Threonyl-Proline [ALG-1001],neovascularization suppressing activity on addition of taurine,improves the neovascularization suppressing activity
